Measurements taken from ChEMBL document CHEMBL1201862, “PubChem BioAssay data set” (2004).
Counter-ions that a name gives are not always drawn.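 All cell lines were grown in 96-well plates and treated with compound for 48 hours. The concentration for 50% growth inhibition is given as GI50.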 Active and inactive are the calls of the source. Cut-off read from the data, not from the text of the source: active = GI50 up to about 1.1 µM and inactive = higher.

How the values were obtained:
Assay in all cases: inhibition of tumour cell growth, NCI panel, 48 h
MCF7 = test system: MCF7
HCT-15 = test system: HCT-15
NCI/ADR-RES = test system: NCI/ADR-RES
SF-539 = test system: SF-539
COLO 205 = test system: COLO 205
SW-620 = test system: SW-620
ACHN = test system: ACHN
K562 = test system: K562
OVCAR-8 = test system: OVCAR-8
EKVX = test system: EKVX
NCI-H226 = test system: NCI-H226
786-0 = test system: 786-0
OVCAR-5 = test system: OVCAR-5
NCI-H23 = test system: NCI-H23
MOLT-4 = test system: MOLT-4
HCC 2998 = test system: HCC 2998
SK-MEL-28 = test system: SK-MEL-28
SK-MEL-5 = test system: SK-MEL-5
Malme-3M = test system: Malme-3M
RXF 393 = test system: RXF 393

Row | SMILES | GI50 (MCF7) | GI50 (HCT-15) | GI50 (NCI/ADR-RES) | GI50 (SF-539) | GI50 (COLO 205) | GI50 (SW-620) | GI50 (ACHN) | GI50 (K562) | GI50 (OVCAR-8) | GI50 (EKVX) | GI50 (NCI-H226) | GI50 (786-0) | GI50 (OVCAR-5) | GI50 (NCI-H23) | GI50 (MOLT-4) | GI50 (HCC 2998) | GI50 (SK-MEL-28) | GI50 (SK-MEL-5) | GI50 (Malme-3M) | GI50 (RXF 393)
1 | COc1cc(C2SCC(=O)N2Cc2ccccc2)cc(OC)c1OC (configuration not stated) | > 100 µM (inactive) | > 100 µM | > 100 µM (inactive) | > 100 µM (inactive) | > 100 µM (inactive) | > 100 µM (inactive) | > 100 µM (inactive) | > 100 µM (inactive) | > 100 µM (inactive) | > 100 µM (inactive) | > 100 µM (inactive) | > 100 µM (inactive) | > 100 µM (inactive) | > 100 µM (inactive) | > 100 µM (inactive) | > 100 µM (inactive) | > 100 µM (inactive) | > 100 µM (inactive) | – | –
2 | Nn1c(-c2ccccc2)n[nH]c1=O | > 100 µM (inactive) | > 100 µM | > 100 µM (inactive) | > 100 µM (inactive) | > 100 µM (inactive) | > 100 µM (inactive) | > 100 µM (inactive) | > 10 µM (inactive) | > 100 µM (inactive) | > 100 µM (inactive) | > 100 µM (inactive) | > 100 µM (inactive) | > 100 µM (inactive) | > 100 µM (inactive) | > 100 µM (inactive) | > 100 µM (inactive) | > 100 µM (inactive) | > 100 µM (inactive) | 80.2 µM (inactive) | –
3 | CCCSc1ccc2[nH]c(N3C(=O)/C(=C/c4ccc(O)c(OC)c4)N=C3c3ccccc3)cc2c1 | 2.94 µM (inactive) | 4.43 µM | 3.1 µM (inactive) | 4.88 µM (inactive) | 4.27 µM (inactive) | 5.61 µM (inactive) | 25.2 µM (inactive) | 3.68 µM (inactive) | 21.3 µM (inactive) | 14.5 µM (inactive) | – | 16.3 µM (inactive) | 4.07 µM (inactive) | 16.7 µM (inactive) | 4.23 µM (inactive) | 2.8 µM (inactive) | 17.2 µM (inactive) | 4.51 µM (inactive) | 2.98 µM (inactive) | 18.8 µM (inactive)
4 | CCCCCc1c2nc(c(CCCCC)c3ccc([nH]3)c(CCCCC)c3nc(c(CCCCC)c4ccc1[nH]4)C=C3)C=C2 | > 100 µM (inactive) | > 100 µM | > 100 µM (inactive) | > 100 µM (inactive) | > 100 µM (inactive) | > 100 µM (inactive) | > 100 µM (inactive) | > 100 µM (inactive) | > 100 µM (inactive) | > 100 µM (inactive) | – | > 100 µM (inactive) | > 100 µM (inactive) | > 100 µM (inactive) | > 100 µM (inactive) | > 100 µM (inactive) | > 100 µM (inactive) | > 100 µM (inactive) | > 100 µM (inactive) | –
5 | CC12CCC(C1)C(C)(C)C2OC(=O)c1ccccc1N (configuration not stated) | 16.5 µM (inactive) | 15.9 µM | 16.6 µM (inactive) | 18.6 µM (inactive) | 15.4 µM (inactive) | 15.5 µM (inactive) | 17.5 µM (inactive) | 14.9 µM (inactive) | 18.5 µM (inactive) | 15.6 µM (inactive) | – | 16.6 µM (inactive) | 18.2 µM (inactive) | 15.7 µM (inactive) | 6 µM (inactive) | 13.3 µM (inactive) | 16.7 µM (inactive) | 17 µM (inactive) | 13.4 µM (inactive) | 12.2 µM (inactive)
6 | [N-]=[N+]=Nc1c([N+](=O)[O-])c(=O)n2c3c(cccc13)CCC2 | 11 µM (inactive) | 6.44 µM | 20.6 µM (inactive) | 23.2 µM (inactive) | 6.28 µM (inactive) | 3.9 µM (inactive) | 17.8 µM (inactive) | 1.75 µM (inactive) | 17.3 µM (inactive) | 19.4 µM (inactive) | 24.2 µM (inactive) | 17.1 µM (inactive) | 16.4 µM (inactive) | 16.1 µM (inactive) | 2.48 µM (inactive) | 19.1 µM (inactive) | 5.62 µM (inactive) | 16.7 µM (inactive) | 1.62 µM (inactive) | –
7 | CC1(C)OCC(C2OC(C)(C)OC2[C@H]2O[C@@]3(O)[C@H]4[C@H](C=CC[C@@H]42)[C@@H](OCc2ccccc2)[C@H](OCc2ccccc2)[C@H]3OCc2ccccc2)O1 (some centres not stated) | 15.2 µM (inactive) | 21.9 µM | 28.6 µM (inactive) | 27.2 µM (inactive) | > 100 µM (inactive) | 27.8 µM (inactive) | > 100 µM (inactive) | 23.9 µM (inactive) | 22.7 µM (inactive) | 33.7 µM (inactive) | 59.3 µM (inactive) | 35 µM (inactive) | 54.3 µM (inactive) | 28.4 µM (inactive) | 12.5 µM (inactive) | – | > 100 µM (inactive) | 43.2 µM (inactive) | > 100 µM (inactive) | 16.5 µM (inactive)
8 | CC1=C[C@H](C[C@]2(C)c3c(c4c(C)cccc4oc3=O)O[C@@H]2C)OC1=O | 52.6 µM (inactive) | 18.3 µM | 20.1 µM (inactive) | > 100 µM (inactive) | 49.9 µM (inactive) | 21.7 µM (inactive) | > 100 µM (inactive) | 28 µM (inactive) | 68.1 µM (inactive) | > 100 µM (inactive) | > 100 µM (inactive) | 22.8 µM (inactive) | > 100 µM (inactive) | 65.5 µM (inactive) | 21.1 µM (inactive) | > 100 µM (inactive) | > 10 µM (inactive) | > 100 µM (inactive) | 29.9 µM (inactive) | –
9 | Cc1ccc(S(=O)(=O)NC(=O)Nc2c(S(N)(=O)=O)cc(S(N)(=O)=O)c(Cl)c2Cl)cc1 | > 100 µM (inactive) | > 100 µM | > 100 µM (inactive) | > 100 µM (inactive) | – | > 100 µM (inactive) | > 100 µM (inactive) | > 100 µM (inactive) | > 100 µM (inactive) | > 100 µM (inactive) | > 100 µM (inactive) | > 100 µM (inactive) | > 100 µM (inactive) | > 100 µM (inactive) | > 100 µM (inactive) | > 100 µM (inactive) | > 100 µM (inactive) | > 100 µM (inactive) | > 100 µM (inactive) | –
10 | O=C1Cc2c([nH]c3c(Br)cccc23)-c2ccccc2N1 | 24.6 µM (inactive) | 25.1 µM | 40.3 µM (inactive) | 49.5 µM (inactive) | 27.8 µM (inactive) | 38.1 µM (inactive) | > 100 µM (inactive) | 18.2 µM (inactive) | 48.2 µM (inactive) | > 100 µM (inactive) | > 100 µM (inactive) | > 100 µM (inactive) | > 100 µM (inactive) | > 100 µM (inactive) | 16.4 µM (inactive) | 44.9 µM (inactive) | – | 30.1 µM (inactive) | > 100 µM (inactive) | –
11 | N=c1ccn2c(n1)O[C@H]1[C@H](O)[C@@H](CO)O[C@H]12 [ANCITABINE HYDROCHLORIDE] | 0.522 µM (active) | – | 2.35 µM (inactive) | 44.1 µM (inactive) | 154 µM (inactive) | – | 0.291 µM (active) | 8.85 µM (inactive) | 0.658 µM (active) | 62.1 µM (inactive) | – | 0.57 µM (active) | 24.7 µM (inactive) | 0.406 µM (active) | 0.207 µM (active) | 33.7 µM (inactive) | – | 9.23 µM (inactive) | 3.03 µM (inactive) | 79.8 µM (inactive)
